Reference: US20260053932A1, “COMPOUNDS AND METHODS FOR THE TARGETED DEGRADATION OF ANDROGEN RECEPTOR AND ASSOCIATED METHODS OF USE” (Arvinas Operations, Inc., priority 2020, published 2026)
Like-named read-outs stand apart in the source and are kept apart here.

Test system: androgen receptor (AR) in LNCaP and/or VCaP cells
Experiment: Androgen Receptor ELISA assay (AR degradation)
Type: cell-based
Conditions: degradation of AR ELISA in LNCaP and/or VCaP cells, read-out: DC50 Code*
Summary of the method: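 VCaP cells grown ≥3 days, then treated 5 h with compound in media containing 1 nM R1881 (10× stock). Cells lysed and AR quantified by sandwich ELISA (mouse AR detection Ab, HRP anti-mouse, TMB). DC50 and Dmax derived from AR degradation.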

| Compound | DC50 (Table 2C) [nM] | DC50 [nM] |
| --- | --- | --- |
| COc1cc(O[C@H]2C(C)(C)[C@H](NC(=O)c3ccc(N4CCC(CN(CC(F)F)[C@H]5C[C@H](Oc6cc(OC)c7c(c6)C(=O)N(C6CCC(=O)NC6=O)C7=O)C5)CC4)cc3)C2(C)C)ccc1C#N (stereo partly shown) [compound 235, N-((1r,3r)-3-(4-cyano-3-methoxyphenoxy)-2,2,4,4-tetramethylcyclobutyl)-4-(4-(((2,2-difluoroethyl)((1r,3r)-3-((2-(2,6-dioxopiperidin-3-yl)-7-methoxy-1,3-dioxoisoindolin-5-yl)oxy)cyclobutyl)amino)methyl)piperidin-1-yl)benzamide] | < 1 |  |
| CC1(C)[C@H](NC(=O)c2cnc(N3CCC(CN(CCN4CCOCC4)[C@H]4C[C@H](Oc5ccc6c(c5)C(=O)N(C5CCC(=O)NC5=O)C6=O)C4)CC3)cn2)C(C)(C)[C@H]1Oc1ccc(C#N)c(Cl)c1 (stereo partly shown) [compound 237, N-((1r,3r)-3-(3-chloro-4-cyanophenoxy)-2,2,4,4-tetramethylcyclobutyl)-5-(4-((((1r,3r)-3-((2-(2,6-dioxopiperidin-3-yl)-1,3-dioxoisoindolin-5-yl)oxy)cyclobutyl)(2-morpholinoethyl)amino)methyl)piperidin-1-yl)pyrazine-2-carboxamide] | 1 to 10 |  |
| COCCN(CC1CCN(c2cnc(C(=O)N[C@H]3C(C)(C)[C@H](Oc4ccc(C#N)c(Cl)c4)C3(C)C)cn2)CC1)[C@H]1C[C@H](Oc2ccc3c(c2)C(=O)N(C2CCC(=O)NC2=O)C3=O)C1 (stereo partly shown) [compound 239, N-((1r,3r)-3-(3-chloro-4-cyanophenoxy)-2,2,4,4-tetramethylcyclobutyl)-5-(4-((((1r,3r)-3-((2-(2,6-dioxopiperidin-3-yl)-1,3-dioxoisoindolin-5-yl)oxy)cyclobutyl)(2-methoxyethyl)amino)methyl)piperidin-1-yl)pyrazine-2-carboxamide] |  | 1 to 10 |
| COc1cc(O[C@H]2C[C@H](N(CC(F)F)CC3CCN(c4ccc(C(=O)N[C@H]5C(C)(C)[C@H](Oc6cc(C)c(C#N)c(C)c6)C5(C)C)cc4)CC3)C2)cc2c1C(=O)N(C1CCC(=O)NC1=O)C2=O (stereo partly shown) [compound 242, N-((1r,3r)-3-(4-cyano-3,5-dimethylphenoxy)-2,2,4,4-tetramethylcyclobutyl)-4-(4-(((2,2-difluoroethyl)((1r,3r)-3-((2-(2,6-dioxopiperidin-3-yl)-7-methoxy-1,3-dioxoisoindolin-5-yl)oxy)cyclobutyl)amino)methyl)piperidin-1-yl)benzamide] |  | 1 to 10 |
| COc1cc(O[C@H]2C(C)(C)[C@H](NC(=O)c3ccc(N4CCC(CN5CCOCCCCOc6cc(cc7c6C(=O)N(C6CCC(=O)NC6=O)C7=O)O[C@H]6C[C@H]5C6)CC4)nn3)C2(C)C)ccc1C#N (stereo partly shown) [compound 244] |  | 1 to 10 |
| CC1(C)[C@H](NC(=O)c2ccc(N3CCC(CO[C@H]4C[C@H](Oc5ccc6c(c5)C(=O)N(C5CCC(=O)NC5=O)C6=O)C4)CC3)cc2)C(C)(C)[C@H]1Oc1ccc(C#N)c(Cl)c1 (stereo partly shown) [compound 245, N-((1r,3r)-3-(3-chloro-4-cyanophenoxy)-2,2,4,4-tetramethylcyclobutyl)-4-(4-(((1r,3r)-3-((2-(2,6-dioxopiperidin-3-yl)-1,3-dioxoisoindolin-5-yl)oxy)cyclobutoxy)methyl)piperidin-1-yl)benzamide] |  | 1 to 10 |
| COc1cc(O[C@H]2C[C@H](N(CC(F)F)CC3CCN(c4cnc(C(=O)N[C@H]5C(C)(C)[C@H](Oc6cc(C)c(C#N)c(C)c6)C5(C)C)cn4)CC3)C2)cc2c1C(=O)N(C1CCC(=O)NC1=O)C2=O (stereo partly shown) [compound 246, N-((1r,3r)-3-(4-cyano-3,5-dimethylphenoxy)-2,2,4,4-tetramethylcyclobutyl)-5-(4-(((2,2-difluoroethyl)((1r,3r)-3-((2-(2,6-dioxopiperidin-3-yl)-7-methoxy-1,3-dioxoisoindolin-5-yl)oxy)cyclobutyl)amino)methyl)piperidin-1-yl)pyrazine-2-carboxamide] |  | 10 to 100 |
